In patent publication US20020192253A1, “Peeling composition” (priority 1999, published 2002):
Structures can show the parent of a compound that is named as a salt.

Test system: skin
Experiment: Photodynamic peeling: ointment applied to facial skin, then 635 nm excimer dye laser irradiation
Conditions: for time at which peeling was completed after the operation: 635 nm
[1] = Example 1: 10 g of 20% ointment, left half of face, 4 hours, 5 J/cm^2 for 30 minutes
[2] = Example 2: 5 g of 20% ointment, right cheek, 12 hours, 5 J/cm^2 for 15 minutes

## NCC(=O)CCC(=O)O [5-ALA hydrochloride, 5-aminolevulinic acid]
Example 1: 6 months after the treatment
  condition of treated part in follow-up survey: still remained in favorable conditions
[1]
  day from which edematous erythema gradually disappeared: 3 days
  skin reaction at the affected part after irradiation: edematous erythema was formed at the affected part
Example 1: person, 10 g of 20% by weight ointment on left half of face, 4 hours shaded, 5 J/cm^2 for 30 minutes
  time at which peeling was completed after the operation: 3 weeks
Example 1: treated left versus right part of face
  skin tension, wrinkles, pigmentation, acne spots compared with the untreated right part of the face: obviously relieved
[2]
  day from which edematous erythema gradually disappeared: 3 days
  skin reaction at the affected part after irradiation: edematous erythema was formed at the affected part
Example 2: 6 months after the treatment
  condition of treated part in follow-up survey: still remained in favorable conditions
Example 2: person, 5 g of 20% by weight ointment on right cheek (6 cm×6 cm), 12 hours shaded, 5 J/cm^2 for 15 minutes
  time at which peeling was completed after the operation: 6 days
Example 2: treated right cheek versus left cheek
  skin tension, wrinkles, pigmentation, acne spots compared with the corresponding part in the left cheek: obviously relieved
